Results reported in patent US5001120A, “Use of A-Nor-steroids as malignant cells growth inhibitors” (Natural Pharmacia International, Inc., priority 1989, dated 1991).
Converted amounts (≈) assume the structure as drawn. Structures can show the parent of a compound that is named as a salt. Where two headings read alike, the source gives them in different places.

What was measured:
[1] = tested on: amitotic cells of cultured hamster's ascites tumor; settings: Pincus and Gordon (1965); cited from earlier work
lung carcinoma (A-549) = experiment: In vitro ED50 against tumor cells, A-549; assay type: cell-based; settings: Homo sapiens
Excerpt: (§1) The procedure of Geran, R. T., et al. Cancer Chemother. Rep. (Part 3) 3,1 (1972) (see K. H. Lee et al., Planta Medica, 308, 1988), was employed to determine the in vitro ED50 dose for NPI-007 and NPI-008 against human tumor cells, including the lymphoid leukemia (L 1210), the lung carcinoma (A-549), the ileocecal carcinoma (HCT-8), and the mammary gland carcinoma (MCF-7) cell lines. These cell lines were obtained from the American Type Culture Collection (Rockville, Md.).

[2] = tested on: ileocecal carcinoma (HCT-8); experiment: In vitro ED50 against tumor cells, HCT-8; assay type: cell-based; settings: Homo sapiens
Excerpt: as §1

Lewis Lung Carcinoma = experiment: In vivo Antitumor Activity Against Lewis Lung Carcinoma; design: species or system Mice (DBF1); settings: dosage mg × 7 Days: NPI-008 0.1, Cyclophosphamide 0.4; for Tumor Weight, 3 Days After Treatment: 10 mice, control 310 ± 51.5; for Tumor Weight, 8 Days After Treatment: 11 mice, control 772 ± 360
[3] = tested on: lymphoid leukemia (L 1210); experiment: In vitro ED50 against tumor cells, L 1210; assay type: cell-based
Excerpt: as §1

[4] = tested on: mammary gland carcinoma (MCF-7); experiment: In vitro ED50 against tumor cells, MCF-7; assay type: cell-based; settings: Homo sapiens
Excerpt: as §1

[5] = tested on: Ehrlich ascite tumor (ECA); experiment: In vivo Tumor Growth Inhibition Assay, ECA; design: species or system Swiss albino female mice; settings: 0.1 mg/0.05 ml into thigh muscle every other day, 5 treatments; for Inhibition %: wet tumor weight vs control; for Wet Weight of Tumor (treatment group): ± SE (n=5), control 0.4162 ± 0.0767
Excerpt: (§2) Swiss albino female mice of 10-12 weeks old, weighing 17-20 grams were separated into two groups.
(§3) Sarcoma-180, Ehrlich ascite tumor (ECA) and U14 cell lines were separately maintained and propagated in MEM-F12 medium supplemented with 10% FCS. The cells were detached to suspension by use of 0.25% trypsin solution. After suspension, the cells were washed once with PBS and resuspended in sample buffered solution. The cells were counted by a coulter particle counting apparatus. Cells sized from 10-100 μ were obtained for calculation of dosage.
(§4) Animals were restrained manually and 0.2 ml cell suspension containing 10^7 to 2×10^7 cells/ml for S180, U14 or ECA were injected subcutaneously in left thorax ventrally adjacent to axillae. The selected A-nor-5α-androstane (5 mg) was dissolved in 2.5 ml phosphate buffered saline (pH 7.4) solution. A solution (0.1 mg/0.05 ml) was injected into thigh muscle every other day for 5 consecutive treatments. The injection site was alternated between right and left legs. […] Control animals received injection of the same amount of PBS in a manner similar to the treated groups.
(§5) At 2 days after the last (5th) treatment, animals were sacrificed by suffocation with carbon dioxide gas. The skin over the tumor site was reflected and the tumor mass dissected free from connective tissue and weighted with an electric balance.

M14 = experiment: In vivo Tumor Growth Inhibition Assay, M14; design: species or system Swiss albino female mice; settings: 0.1 mg/0.05 ml into thigh muscle every other day, 5 treatments; for Inhibition %: wet tumor weight vs control; for Wet Weight of Tumor (treatment group): ± SE (n=5), control 1.1413 ± 0.1225
Sarcoma-180 = experiment: In vivo Tumor Growth Inhibition Assay, S180; design: species or system Swiss albino female mice; settings: 0.1 mg/0.05 ml into thigh muscle every other day, 5 treatments; for Inhibition %: wet tumor weight vs control; for Wet Weight of Tumor (treatment group): ± SE (n=5), control 2.0939 ± 0.3835
Excerpt: as §2, §3, §4, §5

[6] = experimental animals (Ku, C.P. et al., 1975); cited from earlier work
[7] = cited from earlier work
[8] = experimental and clinical evidence; cited from earlier work

2α,17α-diethyl,2β-17β-diol
antiestrogenic activity (inhibition of estrogen-induced cell division) [1]: possess antiestrogenic activity

C#C[C@]1(O)CC[C@H]2[C@@H]3CC[C@H]4C[C@H](C(C)=O)C[C@]4(C)[C@H]3CC[C@@]21C [2α-acetyl-17α-ethynyl-17β-ol]
antiestrogenic activity (inhibition of estrogen-induced cell division) [1]: possess antiestrogenic activity

C#C[C@@]1(O)C[C@@H]2CC[C@@H]3[C@H](CC[C@]4(C)[C@@H](O)CC[C@@H]34)[C@@]2(C)C1 [2α-ethynyl-2β,17β-diol]
antiestrogenic activity (inhibition of estrogen-induced cell division) [1]: possess antiestrogenic activity

C#C[C@@]1(O)C[C@@H]2CC[C@@H]3[C@H](CC[C@@]4(C)[C@H]3CC[C@]4(C)O)[C@@]2(C)C1 [2α-ethynyl-2β, 17β-diol-17α-methyl]
antiestrogenic activity (inhibition of estrogen-induced cell division) [1]: possess antiestrogenic activity

COc1cccc2c1C(=O)c1c(O)c3c(c(O)c1C2=O)C[C@@](O)(C(=O)CO)C[C@@H]3O[C@H]1C[C@H](N)[C@H](O)[C@H](C)O1 [Adriamycin HCl, reference compound]
IC50 (lung carcinoma (A-549); A549, read-out: ED50): 0.16 µg/mL
IC50 ([2]; HCT-8, read-out: ED50): 0.3 µg/mL

O=P1(N(CCCl)CCCl)NCCCO1 (stereo not shown) [Cyclophosphamide, reference compound]
Tumor Weight, 3 Days After Treatment (Lewis Lung Carcinoma): 130 ± 31 mg
Tumor Weight, 8 Days After Treatment (Lewis Lung Carcinoma): 500 ± 275 mg

C#C[C@@]1(OC(=O)CC)C[C@@H]2CC[C@@H]3[C@H](CC[C@@]4(C)[C@H]3CC[C@]4(C#C)OC(=O)CC)[C@@]2(C)C1 [NPI-007, 2α,17α-diethynyl-A-nor-5α-androstane-2β,17β-diol dipropionate]
IC50 ([3]; L1210, read-out: ED50): 4.5 µg/mL (≈ 10.3 µM)
IC50 (lung carcinoma (A-549); A549, read-out: ED50): > 10 µg/mL
IC50 ([2]; HCT-8, read-out: ED50): 0.57 µg/mL (≈ 1.3 µM)
IC50 ([4]; MCF7, read-out: ED50): 5.9 µg/mL (≈ 13.5 µM)
Inhibition % [5]: 52.9%
Wet Weight of Tumor (treatment group) [5]: 0.1957 ± 0.0165 g
Inhibition % (M14): 43.4%
Wet Weight of Tumor (treatment group) (M14): 0.6464 ± 0.0536 g
Inhibition % (Sarcoma-180): 74.1%
Wet Weight of Tumor (treatment group) (Sarcoma-180): 0.5428 ± 0.1059 g
anti-implantation activity [6]: significant anti-implantation activity
hyperestrogenic side effect ([7]; clinical studies (Ku, C.P. et al., 1975)): hyperestrogenic side effect has been noted
anti-implantation activity ([7]; clinical trials (Hu, C. et al., 1982)): significant anti-implantation activity
anti-fertility activity [8]: significant anti-fertility activity

C#C[C@@]1(OC(=O)CCC(=O)O)C[C@@H]2CC[C@@H]3[C@H](CC[C@@]4(C)[C@H]3CC[C@]4(C#C)OC(=O)CCC(=O)O)[C@@]2(C)C1 [NPI-008, 2α,17α-diethynyl-A-nor-5α-androstane-2β,17β-diol disuccinate]
IC50 ([3]; L1210, L 1210, N = 4, read-out: ED50 (the source's name)): 5.87 µg/mL
IC50 (lung carcinoma (A-549); A549, A-549, N = 4, read-out: ED50 (the source's name)): > 10 µg/mL
IC50 ([2]; HCT-8, N = 4, read-out: ED50 (the source's name)): 0.41 µg/mL
IC50 ([4]; MCF7, MCF-7, N = 4, read-out: ED50 (the source's name)): 7.6 µg/mL
Inhibition % [5]: 90.0%
Wet Weight of Tumor (treatment group) [5]: 0.0416 ± 0.0120 g
Inhibition % (M14): 75.6%
Wet Weight of Tumor (treatment group) (M14): 0.2785 ± 0.0308 g
Inhibition % (Sarcoma-180): 87.0%
Wet Weight of Tumor (treatment group) (Sarcoma-180): 0.2722 ± 0.0872 g
Tumor Weight, 3 Days After Treatment (Lewis Lung Carcinoma): 168 ± 53 mg
Tumor Weight, 8 Days After Treatment (Lewis Lung Carcinoma): 175 ± 153 mg

CC[C@]1(O)C[C@@H]2CN(CCc3c([nH]c4ccccc34)[C@@](C(=O)OC)(c3cc4c(cc3OC)N(C)[C@H]3[C@@](O)(C(=O)OC)[C@H](OC(C)=O)[C@]5(CC)C=CCN6CC[C@]43[C@@H]65)C2)C1 [Vinblastine sulfate, reference compound]
IC50 (lung carcinoma (A-549); A549, read-out: ED50): 0.003 µg/mL
IC50 ([2]; HCT-8, read-out: ED50): 0.005 µg/mL

COc1cc([C@@H]2c3cc4c(cc3[C@@H](O[C@@H]3O[C@@H]5CO[C@@H](C)O[C@H]5[C@H](O)[C@H]3O)[C@H]3COC(=O)[C@H]23)OCO4)cc(OC)c1O [etoposide, reference compound]
IC50 ([3]; L1210, read-out: ED50): 1.58 µg/mL (≈ 2.68 µM)
